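In this assay, cells in 96-well plates receive the compound at five concentrations for 48 hours. Endpoints are linearly interpolated between the surrounding concentrations. GI50 marks 50% less growth.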 Calls of active or inactive are those of the source. Rule as the data show it: active = GI50 up to about 1.1 µM and inactive = higher.
How the values were obtained:
Experiment in all cases: NCI anticancer screen, dose series, 48 h
PC-3 = tested on: PC-3
ACHN = tested on: ACHN
HOP-92 = tested on: HOP-92
MDA-MB-435 = tested on: MDA-MB-435
HT-29 = tested on: HT-29
SF-539 = tested on: SF-539
SK-MEL-28 = tested on: SK-MEL-28
SK-OV-3 = tested on: SK-OV-3
CAKI-1 = tested on: CAKI-1
M14 = tested on: M14
SK-MEL-2 = tested on: SK-MEL-2
HOP-62 = tested on: HOP-62
UACC-257 = tested on: UACC-257
SF-295 = tested on: SF-295
HCT-116 = tested on: HCT-116
A498 = tested on: A498
LOX IMVI = tested on: LOX IMVI
U-251 = tested on: U-251
UACC-62 = tested on: UACC-62
RXF 393 = tested on: RXF 393

SMILES	GI50 (PC-3)	GI50 (ACHN)	GI50 (HOP-92)	GI50 (MDA-MB-435)	GI50 (HT-29)	GI50 (SF-539)	GI50 (SK-MEL-28)	GI50 (SK-OV-3)	GI50 (CAKI-1)	GI50 (M14)	GI50 (SK-MEL-2)	GI50 (HOP-62)	GI50 (UACC-257)	GI50 (SF-295)	GI50 (HCT-116)	GI50 (A498)	GI50 (LOX IMVI)	GI50 (U-251)	GI50 (UACC-62)	GI50 (RXF 393)
O=C(/C=C/c1ccc2c(c1)OCO2)NCc1ccco1	> 100 µM (inactive)	> 100 µM (inactive)	92.5 µM (inactive)	> 100 µM (inactive)	> 100 µM (inactive)	64.9 µM (inactive)	> 100 µM (inactive)	> 100 µM (inactive)	> 100 µM (inactive)	> 100 µM (inactive)	> 100 µM (inactive)	> 100 µM (inactive)	> 100 µM (inactive)	> 100 µM (inactive)	> 100 µM (inactive)	84.3 µM (inactive)	> 100 µM (inactive)	> 100 µM (inactive)	74.6 µM (inactive)	–
CCOC(=O)C1CCC(=O)N1C(=O)c1cccc(Cl)c1 (centres undefined)	> 100 µM (inactive)	> 100 µM (inactive)	> 100 µM (inactive)	> 100 µM (inactive)	> 100 µM (inactive)	> 100 µM (inactive)	> 100 µM (inactive)	–	> 100 µM (inactive)	> 100 µM (inactive)	–	> 100 µM (inactive)	> 100 µM (inactive)	> 100 µM (inactive)	> 100 µM (inactive)	> 100 µM (inactive)	> 100 µM (inactive)	> 100 µM (inactive)	14.8 µM (inactive)	> 100 µM (inactive)
CC1(C)OCC(COC(=O)C=[N+]=[N-])O1 (centres undefined)	> 100 µM (inactive)	> 100 µM (inactive)	14.9 µM (inactive)	> 100 µM (inactive)	> 100 µM (inactive)	–	> 100 µM (inactive)	> 100 µM (inactive)	> 100 µM (inactive)	–	> 100 µM (inactive)	79.8 µM (inactive)	> 100 µM (inactive)	> 100 µM (inactive)	> 100 µM (inactive)	> 100 µM (inactive)	> 100 µM (inactive)	> 100 µM (inactive)	> 100 µM (inactive)	> 100 µM (inactive)
N#CC1(C#N)NC(c2ccsc2)C(C#N)(C#N)NC1c1ccsc1 (centres undefined)	> 100 µM (inactive)	> 100 µM (inactive)	> 100 µM (inactive)	> 100 µM (inactive)	> 100 µM (inactive)	> 100 µM (inactive)	> 100 µM (inactive)	> 100 µM (inactive)	> 100 µM (inactive)	> 100 µM (inactive)	> 100 µM (inactive)	> 100 µM (inactive)	> 100 µM (inactive)	> 100 µM (inactive)	> 100 µM (inactive)	> 100 µM (inactive)	> 100 µM (inactive)	> 100 µM (inactive)	> 100 µM (inactive)	–
COC(=O)c1ccccc1C1CN=NC12Cc1ccc3ccccc3c1C2=O (centres undefined)	> 100 µM (inactive)	> 100 µM (inactive)	97.9 µM (inactive)	30.7 µM (inactive)	–	73.8 µM (inactive)	> 100 µM (inactive)	–	> 100 µM (inactive)	> 100 µM (inactive)	> 100 µM (inactive)	–	> 100 µM (inactive)	38.5 µM (inactive)	–	> 100 µM (inactive)	> 100 µM (inactive)	> 100 µM (inactive)	> 100 µM (inactive)	78.3 µM (inactive)
Cc1ccc2c(c1)C(=O)/C(=N/Nc1ccc(Cl)cc1)CCO2	54.5 µM (inactive)	> 100 µM (inactive)	72.4 µM (inactive)	71 µM (inactive)	26.4 µM (inactive)	> 100 µM (inactive)	> 100 µM (inactive)	> 100 µM (inactive)	> 100 µM (inactive)	44 µM (inactive)	21.2 µM (inactive)	> 100 µM (inactive)	> 100 µM (inactive)	24.3 µM (inactive)	50.7 µM (inactive)	> 100 µM (inactive)	35.2 µM (inactive)	> 100 µM (inactive)	50.1 µM (inactive)	–
O=C(NCCCCNCCCNC(=O)c1cc(-c2ccccc2)nc2ccccc12)c1cc(-c2ccccc2)nc2ccccc12	1.63 µM (inactive)	1.9 µM (inactive)	1.37 µM (inactive)	1.79 µM (inactive)	1.6 µM (inactive)	2.13 µM (inactive)	1.83 µM (inactive)	–	1.84 µM (inactive)	2.1 µM (inactive)	1.91 µM (inactive)	1.63 µM (inactive)	1.73 µM (inactive)	1.77 µM (inactive)	1.8 µM (inactive)	2.08 µM (inactive)	1.54 µM (inactive)	1.91 µM (inactive)	2.12 µM (inactive)	2.19 µM (inactive)
CCCCCCCCCCCCCC(=O)O.O=CC(O)C(O)C(OC1OC(CO)C(O)C(O)C1O)C(O)CO (centres undefined)	73.5 µM (inactive)	> 100 µM (inactive)	48.3 µM (inactive)	40.6 µM (inactive)	> 100 µM (inactive)	> 100 µM (inactive)	> 100 µM (inactive)	> 100 µM (inactive)	71.6 µM (inactive)	> 100 µM (inactive)	> 100 µM (inactive)	44.8 µM (inactive)	> 100 µM (inactive)	73.1 µM (inactive)	> 100 µM (inactive)	> 100 µM (inactive)	–	35 µM (inactive)	74.6 µM (inactive)	> 100 µM (inactive)
[N-]=[N+]=NC1=CC(=O)c2cccc3cccc1c23	16.6 µM (inactive)	29.2 µM (inactive)	18.4 µM (inactive)	40 µM (inactive)	34.6 µM (inactive)	31 µM (inactive)	33.3 µM (inactive)	15.3 µM (inactive)	22.2 µM (inactive)	18.4 µM (inactive)	–	15.7 µM (inactive)	31.7 µM (inactive)	24.9 µM (inactive)	23.5 µM (inactive)	12.2 µM (inactive)	17.3 µM (inactive)	20.1 µM (inactive)	16.5 µM (inactive)	16.8 µM (inactive)
c1ccc([P+](CCCCCC[P+](c2ccccc2)(c2ccccc2)c2ccccc2)(c2ccccc2)c2ccccc2)cc1	8.51 µM (inactive)	50.8 µM (inactive)	8.32 µM (inactive)	15.2 µM (inactive)	7.24 µM (inactive)	5.24 µM (inactive)	17.5 µM (inactive)	62.2 µM (inactive)	> 100 µM (inactive)	28.6 µM (inactive)	–	9.18 µM (inactive)	1.59 µM (inactive)	59.4 µM (inactive)	4.51 µM (inactive)	5.04 µM (inactive)	12.2 µM (inactive)	0.798 µM (active)	18 µM (inactive)	11.6 µM (inactive)
Cc1ccn2c(CCc3nnc4cc(C)ccn34)nnc2c1	> 100 µM (inactive)	> 100 µM (inactive)	> 100 µM (inactive)	> 100 µM (inactive)	> 100 µM (inactive)	> 100 µM (inactive)	> 100 µM (inactive)	> 100 µM (inactive)	> 100 µM (inactive)	> 100 µM (inactive)	> 100 µM (inactive)	> 100 µM (inactive)	> 100 µM (inactive)	> 100 µM (inactive)	> 100 µM (inactive)	> 100 µM (inactive)	–	> 100 µM (inactive)	> 100 µM (inactive)	> 100 µM (inactive)

Source: ChEMBL document CHEMBL1201862, “PubChem BioAssay data set” (2004)
